From patent US11207308B2, “Pharmaceutical compositions for combination therapy” (PRILENIA NEUROTHERAPEUTICS LTD., priority 2012, dated 2021)
Where “and” joins values, the source holds several entries; their conditions need not be identical. Identical values can stand only once. Like-named read-outs stand apart in the source and are kept apart here.

Key:
striatal dopamine [1] = test: Striatal dopamine (DA) tissue level (HPLC/EC), interaction with Tetrabenazine; conditions: percentage of Tetrabenazine control group mean
striatal dopamine [2] = test: Striatal dopamine (DA) tissue level (HPLC/EC), dose-response in naive rats; type: in vivo, rat; conditions: mean ± SEM, percentage of vehicle control group mean
Procedure: (§1) Rats weighed 160-180 g at the time of arrival.
(§2) The treatment groups consisted of Vehicle (saline; NaCl 0.9% v/w) and ACR16 tested at three doses (11; 33 and 100 μmol/kg).
(§3) KR104: Animals were allocated into five different treatment groups, n=4.
(§4) All compounds were injected s.c. four minutes before start of locomotor activity recording at a volume of 5 ml/kg.
(§5) A digital sonifier (Branson Digital Sonifier 250-D) was used to homogenise tissue from the striatum and limbic region. […] All samples were centrifuged at 10.000 rpm for 10 minutes at +4° C. Cortex tissue was filtered in Munktell filter paper 5.5 cm quality 1 F. Tissue eluates were analysed with respect to tissue concentrations (ng/g tissue) of the monoamine transmitter substances (Norepinephrine (NA), dopamine (DA), 5-hydroxytryptamine (5-HT)) as well as their amine metabolites (normetanephrine (NM), 3-methoxytyramine (3-MT)) and acid metabolites ([…] (DOPAC), 5-hydrocyindoleacetic acid (5-HTAA), homovanillic acid (HVA)) by HPLC separations and electrochemical detection (HPLC/EC). Stock standards (DA, NA, 5-HT, 3-MT, DOPAC, HVA, HIAA, 500 μg/ml) and internal standard (AMDA 500 μg/ml) are prepared once every three months. 5-HT and 5HIAA are dissolved in milliQ water. DA, NA, DOPAC, NM, 3-MT and HVA are dissolved in 0.01 M HCl. 5-HT, 5-HIAA, NM and HVA are kept in fridge; DA, DOPAC, NA and 3-MT are kept in freezer.
(§6) Detection potentials relative to Ag/AgCl reference are 0.45 and 0.60V. […] Detection potentials relative to Ag/AgCl reference are 0.45 and 0.65V.

striatal DOPAC [3] = test: Striatal DOPAC tissue level (HPLC/EC), dose-response in naive rats; type: in vivo, rat; conditions: mean ± SEM, percentage of vehicle control group mean
Procedure: as §1, §2, §3, §4, §5, §6

Arc mRNA [4] = test: Arc gene expression (Arc mRNA, real-time PCR) in striatum and frontal cortex, dose-response studies; type: in vivo, rat
Procedure: as §1, §4
Reference genes are HPRT and cyclophilin.
Correct PCR products are confirmed by agarose gel electroforesis (2%) PCR products are purified with PCR purification kit from Qiagen (Valencia, Calif., USA). All genes are sequenced at MWG, Germany.
For the data shown in FIG. 6, the reverse transcription and PCR were performed as follows:
Reversed transcription is performed by using a ThermoScript kit (Invitrogen).
cDNA of Arc and two reference genes, hypoxanthine-guanine phosphoribosyltransferase (HPRT) and cyclophilin A, was amplified by real-time PCR in either a triplex reaction (Tetrabenazine studies) or three singleplex reactions (studies with Pridopidine and haloperidol).

Male Sprague-Dawley rats [5] = test: Spontaneous locomotor activity, dose-response in drug-naive rats; type: in vivo, rat; conditions: for Spontaneous locomotor activity, % of the vehicle control group mean: full hour of recording
Procedure: as §1, §2, §3, §4
During measurements of behavioural activity, a rat is put in a transparent acrylic cage with matted black floor (W×L×H, 41×41×30 cm) which in turn is placed in the activity monitor. […] Two rows are placed along the front and the side of the floor of the cage, at a 90 degree angle, and the third row is placed 10 cm above the floor to measure vertical activity. Photobeam sensors are spaced 2.5 cm apart.

Arc mRNA [6] = test: Arc gene expression (Arc mRNA, real-time PCR) in striatum and frontal cortex, interaction with Tetrabenazine
striatal DOPAC [7] = test: Striatal DOPAC tissue level (HPLC/EC), interaction with Tetrabenazine; conditions: percentage of Tetrabenazine control group mean
Male Sprague-Dawley rats [8] = conditions: for Locomotor activity, % of Tetrabenazine control group mean: full hour of recording
Excerpt: No brain tissue was collected from this experiment. […] Each activity monitor consists of a quadratic metal frame equipped with photobeam sensors. […] Each activity monitor is equipped with three rows of infrared photobeam sensors, each row consisting of 16 sensors. […] Photobeam sensors are spaced 2.5 cm apart. Each activity monitor is fitted in an identical sound and light attenuating box (W×L×H—55×55×45) containing a weak house light and a fan. The computer software is written using object oriented programming (LabVIEW™, National instruments, Austin, Tex., USA). Behavioural data from each activity monitor, representing the position (horizontal center of gravity and vertical activity) of the animal at each time, are recorded at a sampling frequency of 25 Hz and collected using a custom written LABView™ application. The data from each recording session are stored and analyzed with respect to distance travelled. Each behavioural recording session lasts 60 min, starting approximately 4 min after the injection of test compound. The results are presented as counts/60 minutes, counts/45 minutes or counts/15 minutes, in arbitrary length units. Statistical comparisons are carried out using Student's t-test against the control group.

[9] = 0.04 mg/kg s.c. together with Tetrabenazine 0.64 mg/kg
[10] = 0.12 mg/kg s.c. together with Tetrabenazine 0.64 mg/kg

O=C(CCCN1CCC(O)(c2ccc(Cl)cc2)CC1)c1ccc(F)cc1 [Haloperidol]
DA striatum, interaction with Tetrabenazine (striatal dopamine [1]; [9]): 79 ± 3 % | DA striatum, interaction with Tetrabenazine (striatal dopamine [1]; [10]): 87 ± 10% | DA striatum, dose-response in naive rats (striatal dopamine [2]; 0.04 mg/kg s.c.): 95 ± 5% | DA striatum, dose-response in naive rats (striatal dopamine [2]; 0.12 mg/kg s.c.): 78 ± 3 % | DA striatum, dose-response in naive rats (striatal dopamine [2]; 0.37 mg/kg s.c.): 79 ± 5 % | DA striatum, dose-response in naive rats (striatal dopamine [2]; 1.1 mg/kg s.c.): 81 ± 2 % | DOPAC striatum, dose-response in naive rats (striatal DOPAC [3]; 0.04 mg/kg s.c.): 171 ± 35% | DOPAC striatum, dose-response in naive rats (striatal DOPAC [3]; 0.12 mg/kg s.c.): 276 ± 8 % | DOPAC striatum, dose-response in naive rats (striatal DOPAC [3]; 0.37 mg/kg s.c.): 254 ± 17 % | DOPAC striatum, dose-response in naive rats (striatal DOPAC [3]; 1.1 mg/kg s.c.): 292 ± 10 % | Arc mRNA in the striatum, % of the vehicle control group mean (Arc mRNA [4]; 0.12 mg/kg s.c.): 262% | Arc mRNA in the striatum, % of the vehicle control group mean (Arc mRNA [4]; 0.37 mg/kg s.c.): 331% | Arc mRNA in the striatum, % of the vehicle control group mean (Arc mRNA [4]; 1.1 mg/kg s.c.): 409% | Cortical Arc gene expression (in words) (Arc mRNA [4]; dose-response, 0.12, 0.37 and 1.1 mg/kg s.c.): no significant effect | Spontaneous locomotor activity, % of the vehicle control group mean (Male Sprague-Dawley rats [5]; 0.37 mg/kg s.c.): about 35% | Spontaneous locomotor activity, % of the vehicle control group mean (Male Sprague-Dawley rats [5]; 1.1 mg/kg s.c.): about 35% | Spontaneous locomotor activity, period 15-60 minutes post dosing (in words) (Male Sprague-Dawley rats [5]; 15-60 minutes post dosing, vs vehicle control): a significant effect (P<0.05) was observed for the 1.1 mg/kg dose group only | Effect on spontaneous locomotor activity (in words) (Male Sprague-Dawley rats [5]; all doses tested, s.c., 60 min recording): dose-dependent inhibitory effect on spontaneous locomotor activity | Spontaneous locomotor activity, initial 15 min (in words) (Male Sprague-Dawley rats [5]; initial 15 min of recording, vs vehicle control): significant reductions (P<0.05) were seen both for the 0.37 and 1.1 mg/kg haloperidol dose groups | Doses with statistically significant effects on spontaneous locomotor activity (Male Sprague-Dawley rats [5]; s.c., not at the lowest dose tested, 0.04 mg/kg): ≥ 0.12 mg/kg | Striatal Arc, % of the Tetrabenazine control group mean (Arc mRNA [6]; 0.04 mg/kg s.c. coadministered with Tetrabenazine 0.64 mg/kg): 272% | Striatal Arc, % of the Tetrabenazine control group mean (Arc mRNA [6]; 0.12 mg/kg s.c. coadministered with Tetrabenazine 0.64 mg/kg): 400% | Cortical Arc gene expression in rats co-treated with Tetrabenazine (in words) (Arc mRNA [6]; 0.04 and 0.12 mg/kg s.c. with Tetrabenazine 0.64 mg/kg): no significant effect | DOPAC striatum, interaction with Tetrabenazine (striatal DOPAC [7]; [9]): 187% and 187 ± 6 % | DOPAC striatum, interaction with Tetrabenazine (striatal DOPAC [7]; [10]): 218% and 218 ± 12 % | Locomotor activity, % of Tetrabenazine control group mean (Male Sprague-Dawley rats [8]; 0.04 mg/kg s.c. combined with Tetrabenazine 0.64 mg/kg): 51% | Locomotor activity, % of Tetrabenazine control group mean (Male Sprague-Dawley rats [8]; 0.12 mg/kg s.c. combined with Tetrabenazine 0.64 mg/kg): 41% | Locomotor activity in Tetrabenazine treated rats, 15-60 min (in words) (Male Sprague-Dawley rats [8]; 15-60 min period, combined with Tetrabenazine 0.64 mg/kg, vs Tetrabenazine control): the reduction was significant for the 0.12 mg/kg dose only | Effect on Tetrabenazine induced locomotor activity reduction (in words) (Male Sprague-Dawley rats [8]; combined with Tetrabenazine 0.64 mg/kg s.c.): further reduced locomotor activity in animals treated with Tetrabenazine | Locomotor activity in Tetrabenazine treated rats, 0-15 min (in words) (Male Sprague-Dawley rats [8]; first 15 min, combined with Tetrabenazine 0.64 mg/kg, vs Tetrabenazine control): this reducing effect was significant at both the 0.04 mg/kg (P<0.01) and the 0.12 mg/kg (P<0.05) doses
